What all share (assay): DTP human tumour cell line panel, 48 h
Assay [1] concerns CAKI-1.
Assay [2] has as its system UACC-257.
Assay [3] relates to HCT-15.
Assay [4] relates to PC-3.
Assay [5] deals with SK-MEL-5.
The subject of assay [6] is Malme-3M.
Assay [7] has as its system NCI-H23.
In assay [8] the test system is SW-620.
Assay [9] has as its system M14.
The subject of assay [10] is OVCAR-4.
Assay [11] concerns SN12C.
For assay [12], the system named is U-251.
For assay [13], the system named is TK-10.
Assay [14] relates to MOLT-4.
In assay [15] the test system is SK-OV-3.
The test system of assay [16] is SNB-19.
The subject of assay [17] is LOX IMVI.
Assay [18] deals with DU-145.

Structures are written as SMILES.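 The compound was tested at five concentrations on cells cultured in 96-well plates, with a 48-hour exposure period. GI50 marks 50% less growth.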 Activity calls are given as the source filed them. Cut-off read from the data, not from the text of the source: active = GI50 up to about 1.1 µM and inactive = higher. Where only a bound is given, the exact number is not on record here.

Consider `CN1CCOC(c2ccc(Cl)cc2)O1` (stereo not given), for which the GI50 in assay [1] is > 100 µM (inactive); in assay [2] it was > 100 µM (inactive); in [3], greater than 100 µM; in assay [4], > 100 µM (inactive); in assay [5], > 100 µM (inactive); in assay [6], > 100 µM (inactive). In addition, the GI50 in [7], in assay [8], in assay [9], in assay [10], in assay [11] and in [12] was > 100 µM (inactive) each time. For the same compound, the GI50 in [13], in assay [14], in assay [15] and in [16] was > 100 µM (inactive) in each case.
For `Cc1cc(C)c2c(O)cc(-c3ccc(F)cc3)nc2n1`, the GI50 is 33.6 µM (inactive) in assay [1]; 45.6 µM (inactive) in assay [17]; 33.1 µM (inactive) in [2]; 47.1 µM in assay [3]; 66.1 µM (inactive) in [18]; 42.9 µM (inactive) in [6]. For the same compound, the GI50 is 38.6 µM (inactive) in [7]; 34.4 µM (inactive) in assay [8]; 45.7 µM (inactive) in assay [9]; 17.6 µM (inactive) in [10]; 50.7 µM (inactive) in assay [11]; 95.1 µM (inactive) in [13]. The GI50 is 29.9 µM (inactive) in assay [14], 87.9 µM (inactive) in assay [15] and > 100 µM (inactive) in assay [16].
For `C[C@@H]1OC(=O)/C(=C\N(C)C)[C@H]2CC(=O)N(CCc3cn(S(=O)(=O)C(F)(F)F)c4ccccc34)C[C@H]12`, the GI50 in assay [1] is > 100 µM (inactive); in [17], > 100 µM (inactive); in assay [2], > 100 µM (inactive); in [3] it was greater than 100 µM; in [4], > 100 µM (inactive); in assay [5], > 100 µM (inactive). Also, the GI50 in [6], in [7], in assay [8], in [9], in [10] and in assay [11] was > 100 µM (inactive) each time. Besides, the GI50 in [12], in assay [13], in assay [14], in assay [15] and in assay [16] was > 100 µM (inactive) each time.
Consider `COc1cc([C@@H]2c3cc4c(cc3[C@@H](/N=C/c3ccc(C(=O)O[C@@H](C(=O)O[C@H]5C[C@@]6(O)[C@@H](OC(=O)c7ccccc7)[C@@H]7[C@]8(OC(C)=O)CO[C@@H]8C[C@H](O)[C@@]7(C)C(=O)[C@H](OC(C)=O)C(=C5C)C6(C)C)[C@@H](NC(=O)c5ccccc5)c5ccccc5)cc3)[C@H]3COC(=O)[C@H]23)OCO4)cc(OC)c1O`, for which the GI50 in assay [1] was 6.31 µM (inactive); in assay [17], 0.11 µM (active); in assay [2], 0.109 µM (active); in [3], 13.3 µM; in assay [4] it was 0.0138 µM (active); in assay [5], 0.0154 µM (active). Also, the GI50 was 0.0261 µM (active) in assay [18]; 0.869 µM (active) in assay [7]; 0.0297 µM (active) in [8]; 0.022 µM (active) in [9]; 0.0393 µM (active) in assay [11]; 0.0154 µM (active) in assay [12]. The GI50 in [13] is 14.1 µM (inactive); in [14], 0.018 µM (active); in assay [15] it was 0.0785 µM (active); in [16] it was 1.22 µM (inactive).
Regarding `OCc1cc2c(ccc3sc4ccc5sc6ccc7ncccc7c6c5c4c32)s1`, the GI50 in assay [1] is 10.6 µM (inactive); in [17] it was 12.6 µM (inactive); in assay [2] it was 13.6 µM (inactive); in [3], 10.7 µM; in [4], 5.93 µM (inactive); in [5], 4.08 µM (inactive). In addition, the GI50 in [18] was 17.1 µM (inactive); in assay [8], 28.2 µM (inactive); in [10], 25.2 µM (inactive); in [11], 11 µM (inactive); in assay [12], 28.4 µM (inactive); in assay [13], 31.8 µM (inactive). Moreover, the GI50 in assay [14] is 11.5 µM (inactive); in assay [15] it was 18.4 µM (inactive); in assay [16], 11.3 µM (inactive).
As to `CC(=O)Nc1ccc2[nH]c(C(=O)N3CC(CCl)c4c3cc([N+](=O)[O-])c3ccccc43)cc2c1` (stereo not given), the GI50 in assay [1] is 3.93 µM (inactive); in [17], 9.2 µM (inactive); in assay [2], > 100 µM (inactive); in [3] it was 6.47 µM; in assay [4] it was 1.2 µM (inactive); in assay [5] it was 5.89 µM (inactive). In addition, the GI50 was 2.96 µM (inactive) in assay [18]; 8.57 µM (inactive) in assay [7]; 9.23 µM (inactive) in assay [8]; 24.2 µM (inactive) in [9]; > 36.3 µM (inactive) in [10]; 7.8 µM (inactive) in assay [11]. For the same compound, the GI50 in [12] is 3.48 µM (inactive); in assay [13], 6.32 µM (inactive); in [14], 0.889 µM (active); in assay [15] it was 0.791 µM (active); in assay [16], > 30.2 µM (inactive).
`COc1ccc(C2OC[C@H]3O[C@@H](OCc4ccccc4)[C@H](O)[C@@H](O)[C@@H]3O2)cc1` (stereo not given in full): the GI50 in assay [1] was > 100 µM (inactive); in [17], > 100 µM (inactive); in [2], > 100 µM (inactive); in assay [3] it was greater than 100 µM; in [4], 99.8 µM (inactive); in [5], 58.2 µM (inactive). In addition, the GI50 in [18] is > 100 µM (inactive); in assay [7], > 100 µM (inactive); in assay [8], > 100 µM (inactive); in assay [10], 84.5 µM (inactive); in [11], > 100 µM (inactive); in assay [12], > 100 µM (inactive). Further, the GI50 in assay [13] is > 100 µM (inactive); in assay [14] it was 41.9 µM (inactive); in assay [15] it was > 100 µM (inactive); in assay [16], > 100 µM (inactive).
In the case of `CC1(C)CC(=O)c2c(nc3c(ccc4ccccc43)c2-c2ccc(NC(=O)CCCCCCCCC(=O)Nc3ccc(-c4c5c(nc6c4ccc4ccccc46)CC(C)(C)CC5=O)cc3)cc2)C1`, the GI50 in assay [1], in assay [17], in assay [2], in assay [4], in [5] and in [18] was > 100 µM (inactive) each time. The GI50 in [8], in assay [9], in assay [11], in assay [12], in assay [13] and in assay [14] was > 100 µM (inactive) throughout. In addition, the GI50 in assay [15] and in [16] was > 100 µM (inactive) throughout.
As for `N#Cc1c2ccc([N+](=O)[O-])cc2c(=O)n2c1sc1ccccc12`, the GI50 is 24.4 µM (inactive) in [1]; 25.2 µM (inactive) in [17]; 78.5 µM (inactive) in assay [2]; 22.2 µM in assay [3]; 14.8 µM (inactive) in assay [4]; 22 µM (inactive) in assay [5]. For the same compound, the GI50 in assay [18] was 35.5 µM (inactive); in [7], 15.2 µM (inactive); in assay [8] it was 18.9 µM (inactive); in assay [10], 20.6 µM (inactive); in assay [11], 24.3 µM (inactive); in assay [12], 14.6 µM (inactive). In addition, the results for the GI50 in assay [13] and in assay [16] were 16 µM (inactive) and 10.5 µM (inactive), respectively.

Values taken from ChEMBL document CHEMBL1201862, “PubChem BioAssay data set” (2004).
